What is called MIC is the smallest concentration in the dilution series that meets the test's criterion for growth inhibition. By MBC is commonly meant the lowest tested concentration that kills the bacteria rather than only halting them. Higher therefore signals weaker bactericidal potency. In general, IC50 refers to the concentration needed to halve the response being measured.

Values after ≈ are worked out from the molar mass of the structure shown. Read-outs that look alike come from different tables or passages of the source. Bounds are passed on as bounds.

We go through seven compounds from paper PMC9146695, “Globularia alypum L. and Related Species: LC-MS Profiles and Antidiabetic, Antioxidant, Anti-Inflammatory, Antibacterial and Anticancer Potential” (Pharmaceuticals, 2022).

The subject of test [1] is Bacillus cereus ATCC 11778. The test can be described thus: Well diffusion method. The format is cell-based. The note with it: aerial parts extracts c = 50 mg/mL; antibiotics c = 0.2 mg/mL; n.d. = growth inhibition not detected. How it is done:
(§1) Antibacterial activity was evaluated using the following strains: Bacillus cereus American Type Culture Collection (ATCC, Manassas, VA, USA) 11778, B. subtilis ATCC 6633, Enterococcus faecalis ATCC 29212, Staphylococcus aureus ATCC 6538 and S. aureus ATCC 29213 among Gram-positive and Escherichia coli ATCC 10536, Klebsiella pneumoniae MFBF 10402 and Pseudomonas aeruginosa ATCC 27853 among Gram-negative bacterial species. Additionally, eight clinical isolates of S. aureus, including methicillin-resistant S. aureus (MRSA MFB F101, MRSA MFBF 124, MRSA MFBF 154, MRSA MFBF 164, and MRSA MFBF 177) and methicillin susceptible S. aureus (S. aureus MFBF 505, S. aureus MFBF 10661 and S. aureus MFBF 10666) were used. Bacterial strains were sourced from the Collection of Microorganisms, Department of Microbiology, Faculty of Pharmacy and Biochemistry, University of Zagreb. Inoculums were prepared from overnight cultures that were cultured on tryptic soy agar (TSA) at 37 °C, suspended in sterile physiological saline, with the optic density adjusted to 0.5 McFarland (1.5 × 10^8 colony-forming units (CFUs)/mL) using a densitometer (Densimat, BioMérieux, Marcy-l’Étoile, France). Right before cultivation in nutrient medium, 1 mL of each prepared suspension was dissolved with 9 mL physiological saline. Prior to cell treatment, sample stock solutions in distilled water (c = 50 mg/mL) were filtered through Chromafil cellulose acetate filters of pore size 0.22 μm (Macherey-Nagel, Düren, Germany).
(§2) Well diffusion method was carried out according to the European Pharmacopoeia. Inoculums (100 μL) were transferred to individual petri dishes with 4 mm thick Müller–Hinton agar and equally distributed across agar surface with a glass L-stick. Wells were prepared using sterile stainless-steel cylinders (d = 6 mm) and filled with 50 μL of methanolic aerial parts extract solution (c = 50 mg/mL) in distilled water. Plates were incubated at 37 °C for 18 h in the dark. Diameters of the zones of inhibition of bacterial growth (mm) were read from the diameters of transparent zones around the wells. Gentamicin and norfloxacin (c = 0.2 mg/mL) were used as positive controls.
On the technique in general: A growth-free zone around the sample is the usual read-out of agar diffusion tests.

In test [2] the test system is Bacillus subtilis ATCC 6633. The test can be described thus: Well diffusion method. The format is cell-based. The note with it: aerial parts extracts c = 50 mg/mL; antibiotics c = 0.2 mg/mL; n.d. = growth inhibition not detected. How it is done: as §1, §2
The subject of test [3] is Enterococcus faecalis ATCC 29212. The test can be described thus: Well diffusion method. The format is cell-based. Conditions: aerial parts extracts c = 50 mg/mL; antibiotics c = 0.2 mg/mL; n.d. = growth inhibition not detected. How it is done:
as §1, §2

The test system of test [4] is Escherichia coli ATCC 10536. The test can be described thus: Well diffusion method. Format: cell-based. The note with it: aerial parts extracts c = 50 mg/mL; antibiotics c = 0.2 mg/mL; n.d. = growth inhibition not detected. On the procedure: as §1, §2
Test [5] relates to Klebsiella pneumoniae MFBF 10402. The test can be described thus: Well diffusion method. Conditions: aerial parts extracts c = 50 mg/mL; antibiotics c = 0.2 mg/mL; n.d. = growth inhibition not detected. The format is cell-based. On the procedure: as §1, §2
The subject of test [6] is Pseudomonas aeruginosa ATCC 27853. The test can be described thus: Well diffusion method. The format is cell-based. The note with it: aerial parts extracts c = 50 mg/mL; antibiotics c = 0.2 mg/mL; n.d. = growth inhibition not detected. How it is done: as §1, §2
Test [7] relates to Staphylococcus aureus ATCC 6538. The test can be described thus: Well diffusion method. Format: cell-based. Conditions: aerial parts extracts c = 50 mg/mL; antibiotics c = 0.2 mg/mL. How it is done:
as §1, §2

Test [8] deals with Bacillus cereus ATCC 11778. The test can be described thus: Serial broth microdilution with agar sub-cultivation. The format is cell-based. In general terms: Dilution methods test growth across graded concentrations, often in twofold steps.
Test [9] relates to Bacillus subtilis ATCC 6633. The test is described as above. Format: cell-based.
Test [10] concerns Enterococcus faecalis ATCC 29212. Described as above. Format: cell-based. Conditions: ATCC29212, n.d. = not detected (0.18–11.36 mg/mL).
Test [11] deals with Staphylococcus aureus ATCC 6538. Described as above. Format: cell-based. Conditions: for MIC: ATCC6538, aerial parts extracts, TTC detection.
The subject of test [12] is Staphylococcus aureus ATCC 29213. Described as above. The format is cell-based. Conditions: for MIC: ATCC29213, aerial parts extracts, TTC detection; for MBC: ATCC29213, agar sub-cultivation.
Test [13] concerns Escherichia coli ATCC 10536. The description is as above. The format is cell-based. The note with it: for MIC: ATCC10536, aerial parts extracts, TTC detection, n.d. = growth inhibition not detected (0.18–11.36 mg/mL).
Test [14] has as its system Klebsiella pneumoniae MFBF 10402. The test is described as above. The format is cell-based.
Test [15] deals with Pseudomonas aeruginosa ATCC 27853. The test is described as above. Format: cell-based. The note with it: for MIC: ATCC27853, aerial parts extracts, TTC detection, n.d. = growth inhibition not detected (0.36–22.73 mg/mL).
Test [16] has as its system CAMA-1 breast cancer cells. Details: method as in doi:10.4314/tjpr.v17i9.4. Conditions: cited from earlier work.
Test [17] deals with S. aureus strains (MSSA and MRSA). The test can be described thus: Serial broth microdilution, S. aureus strains taken together. Format: cell-based. Conditions: Staphylococcus aureus; reference standard; read-out: MIC, anti-staphylococcal activity.
A further test has as its target α-glucosidase. Conditions: cited from earlier work.
For test [18] the following is noted: read-out: DPPH radical scavenging capacity IC50; cited from earlier work. (In general: The DPPH test is a chemical assay of radical scavenging.)
The subject of the next test is COX-1. Details: method as in PMID 11849848. Conditions: cited from earlier work.
A further test has as its system COX-2. Details: method as in PMID 11849848. The note with it: cited from earlier work.
For the next test, the system named is S. aureus. The note with it: cited from earlier work.
The test system of the next test is P. aeruginosa. The note with it: cited from earlier work.
For the next test, the system named is E. faecalis. Conditions: cited from earlier work.
Another test has as its system E. coli. Details: method as in doi:10.1016/j.sajb.2010.04.010. The note with it: range given for both compounds; cited from earlier work.
A further test concerns five MRSA strains. On the set-up: method as in PMID 18404351. The note with it: cited from earlier work.
In the next test the test system is MDA-MB-231. On the set-up: method as in PMID 34719192. Conditions: cited from earlier work.
Test [19] concerns B. subtilis, B. cereus and S. aureus. Details: method as in earlier work. The note with it: cited from earlier work.
The next test has as its system B. subtilis. On the set-up: method as in PMID 31737673. Conditions: same ATCC strain as in the present study; cited from earlier work.
Test [20] concerns YMB-1 breast cancer cells. Conditions: cited from earlier work.
In the next test the test system is HL60 cells. The note with it: cited from earlier work.
The test system of a further test is KB cells. The note with it: cited from earlier work.
Test [21] deals with HT-29 human colon adenocarcinoma cells. Details: method as in doi:10.1007/s00044-015-1500-z. Conditions: cited from earlier work.
Where [22] appears, read: same ATCC strain as in the present study.

In the case of `CNC(C)C1CCC(N)C(OC2C(N)CC(N)C(OC3OCC(C)(O)C(NC)C3O)C2O)O1` (centres unmarked) [Gentamicin, gentamicin], the growth inhibition zone turned out to be 22.3 ± 0.6 mm in test [1]; 24.7 ± 0.6 mm in test [2]; 15.0 ± 0.0 mm in test [3]; 23.3 ± 0.6 mm in [4]; 21.0 ± 0.0 mm in [5]; 24.3 ± 0.6 mm in test [6]. For the same compound, the growth inhibition zone in [7] amounted to 24.0 ± 0.0 mm. For the same compound, the MIC in test [8] (ATCC11778, aerial parts extracts, TTC detection, n.d. = growth inhibition not detected (0.18–11.36 mg/mL)) was 1.5 µg/mL (≈ 3.14 µM); in test [9] (ATCC6633, aerial parts extracts, TTC detection, n.d. = growth inhibition not detected (0.18–11.36 mg/mL)) it was less than 0.1 µg/mL; in test [11] it was 0.6 µg/mL (≈ 1.26 µM); in [12], 0.3 µg/mL (≈ 0.628 µM); in test [13] it was 0.1 µg/mL (≈ 0.209 µM); in [14] (MFBF10402, aerial parts extracts, TTC detection, n.d. = growth inhibition not detected (0.18–11.36 mg/mL)), 0.3 µg/mL (≈ 0.628 µM). Further, the MIC in test [15] came out at 1.1 µg/mL (≈ 2.3 µM). The MBC in test [8] (ATCC11778, agar sub-cultivation, n.d. = not detected (0.18–11.36 mg/mL)) was determined as 1.5 µg/mL (≈ 3.14 µM); in [9] (ATCC6633, agar sub-cultivation, n.d. = not detected (0.18–11.36 mg/mL)) it was 0.2 µg/mL (≈ 0.419 µM); in test [10] it was 4.6 µg/mL (≈ 9.63 µM); in [11] (ATCC6538, agar sub-cultivation, n.d. = not detected) it was 0.8 µg/mL (≈ 1.68 µM); in [12] it was 0.7 µg/mL (≈ 1.47 µM); in test [13] (ATCC10536, agar sub-cultivation, n.d. = not detected (0.18–11.36 mg/mL)), 1.5 µg/mL (≈ 3.14 µM). In addition, the MBC in test [14] (MFBF10402, agar sub-cultivation, n.d. = not detected (0.18–11.36 mg/mL)) is 0.8 µg/mL (≈ 1.68 µM); in [15] (ATCC27853, agar sub-cultivation, n.d. = not detected (0.36–22.73 mg/mL)) it was 3 µg/mL (≈ 6.28 µM).

For the compound `O=C(OCC1=CC(O)C2(O)C=COC(O[C@@H]3O[C@H](CO)[C@@H](O)[C@H](O)[C@H]3O)C12)c1ccccc1` (some centres unmarked) [Globularifolin, Globularifolin (10-O-Benzoylmonomelittoside)], in test [16], the IC50 is 10 µM.

Regarding `CCn1cc(C(=O)O)c(=O)c2cc(F)c(N3CCNCC3)cc21` [Norfloxacin, norfloxacin], the growth inhibition zone in test [1] turned out to be 26.6 ± 0.9 mm; in [2], 41.0 ± 0.0 mm; in test [3], 23.8 ± 0.8 mm; in test [4] it was 44.7 ± 1.0 mm; in [5], 7.3 ± 0.5 mm; in test [6], 30.7 ± 2.8 mm. In [7], this compound returned a growth inhibition zone of 33.8 ± 0.8 mm.

For `C[C@@H]1O[C@@H](O[C@@H]2[C@@H](O)[C@H](OCCc3ccc(O)c(O)c3)O[C@H](CO)[C@H]2OC(=O)/C=C/c2ccc(O)c(O)c2)[C@H](O)[C@H](O)[C@H]1O` [Verbascoside, Verbascoside (Acteoside)], the MIC in [11], in [12], in test [13], in [15] and in test [17] was 227 µg/mL (≈ 364 µM) in each case. Besides, the MBC in [12] amounted to 227 µg/mL (≈ 364 µM). Moreover, the IC50 on α-glucosidase (isolated compounds of Clerodendrum bungei) was 500 µM; in [18], 58.1 µM; in the test on COX-1, greater than 1000 µM; in the test on COX-2, 690 µM; in the test with MDA-MB-231, 0.159 to 0.258 µM. In the test with S. aureus, the “MIC, anti-staphylococcal activity” value is 60 µg/mL (≈ 96.1 µM). Also, the “MIC against P. aeruginosa” value in the test on P. aeruginosa (given for both compounds) is 250 µg/mL (≈ 400 µM). Also, the “MIC against E. faecalis” value in the test with E. faecalis (range given for both compounds) is 100 to 150 µg/mL. Further, the “MIC against E. coli” value with E. coli is 100 to 250 µg/mL. Also, the “MIC against five MRSA strains” value in the test on five MRSA strains is 64 to 256 µg/mL.

Turning to `O=c1cc(-c2ccc(O)cc2)oc2cc(O)cc(O)c12` [apigenin, Apigenin], the half-inhibitory concentration (IC50) on α-glucosidase (compounds from Origanum majorana leaves) was greater than 500 µM. In addition, the “inhibitory activity against S. aureus” value with S. aureus was “no inhibitory activity was observed”. Also, in the test on P. aeruginosa (setting [22]), the “MIC against P. aeruginosa” value is 64 to 400 µg/mL. Further, the “MIC against B. subtilis, B. cereus and S. aureus” value in test [19] was 30 to 80 µg/mL. Moreover, in the test on B. subtilis, the “MIC against B. subtilis” value was 8 µg/mL (≈ 29.6 µM). Also, the “MIC against E. faecalis” value in the test on E. faecalis (setting [22]) is 8 µg/mL (≈ 29.6 µM).

Regarding `CC(=O)OCC1=C[C@@H]2OC(=O)C3=CO[C@@H](O[C@@H]4O[C@H](CO)[C@@H](O)[C@H](O)[C@H]4O)[C@H]1[C@@H]32` [asperuloside, Asperuloside], the “IC50 YMB-1 breast cancer cells” value in test [20] was 0.7 µg/mL (≈ 1.69 µM). Further, the “IC50 HL60 cells” value in the test with HL60 cells was 11.0 µg/mL (≈ 26.5 µM). The “IC50 KB cells” value with KB cells is 104.2 µg/mL (≈ 251 µM).

Consider `CC(=O)OCC1=C[C@H](O)[C@@H]2C(C(=O)O)=CO[C@@H](O[C@@H]3O[C@H](CO)[C@@H](O)[C@H](O)[C@H]3O)[C@H]12` [asperulosidic acid, Asperulosidic acid], for which, in test [21], the “IC50 HT-29 cell viability” value was 6.1 µg/mL (≈ 14.1 µM).
